Measurements as given in PubChem BioAssay AID1919016 (Molecular Pharmacology Branch, DTP, NCI, 2023).
Several values for one entry are separate records, joined by “and”; a condition that tells them apart may be missing. Equal entries are not always repeated.

Test system: NCI-H196 complex spheroid growth, percent test/control
Experiment: Anticancer human tumor NCI-H196 cell line growth inhibition [AhR];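 further: seven days of drug exposure starting three days after plating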;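 on viability, T/C: 100% = DMSO vehicle control wells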
Settings: for viability, T/C: stronger effect = lower value
In short: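 Agents were dosed in half-log steps down from roughly clinical Cmax, or from 10 microM where Cmax was unknown, alone and with AhR antagonists. Read-out: percent test/control growth of tumor spheroids containing HUVEC and MSC stromal cells.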

[1] = curve of first compound, second compound 0.1 µM
[2] = curve of first compound, second compound 0.316 µM
[3] = curve of first compound, second compound 1 µM
[4] = curve of first compound, second compound 3.16 µM
[5] = curve of first compound, second compound 10 µM

Structure (SMILES): O=C(C=Cn1cnc(-c2cc(C(F)(F)F)cc(C(F)(F)F)c2)n1)NNc1cnccn1 + CC(CO)NC(=O)c1cc(-c2ccc(Cl)cc2)nn(-c2cnn(C)c2)c1=O
- IC50 [1]: 0.0451 µM
- IC50 [2]: 0.0374 µM
- IC50 [3]: 0.0333 µM
- IC50 [4]: 0.0384 µM
- IC50 [5]: 0.0458 µM
- viability, T/C (second compound 0.1 µM, first compound 0.00949 µM): 71.2%
- viability, T/C (second compound 0.1 µM, first compound 0.03 µM): 71.1%
- viability, T/C (second compound 0.1 µM, first compound 0.0949 µM): 11.6%
- viability, T/C (second compound 0.1 µM, first compound 0.3 µM): 11.1%
- viability, T/C (second compound 0.1 µM, first compound 0.949 µM): 7.23%
- viability, T/C (second compound 0.1 µM, first compound 3 µM): 6.89%
- viability, T/C (second compound 0.316 µM, first compound 0.00949 µM): 74.7%
- viability, T/C (second compound 0.316 µM, first compound 0.03 µM): 58.2%
- viability, T/C (second compound 0.316 µM, first compound 0.0949 µM): 14.9%
- viability, T/C (second compound 0.316 µM, first compound 0.3 µM): 12.3%
- viability, T/C (second compound 0.316 µM, first compound 0.949 µM): 8.19%
- viability, T/C (second compound 0.316 µM, first compound 3 µM): 7.69%
- viability, T/C (second compound 1 µM, first compound 0.00949 µM): 73.2%
- viability, T/C (second compound 1 µM, first compound 0.03 µM): 53.6%
- viability, T/C (second compound 1 µM, first compound 0.0949 µM): 14.3%
- viability, T/C (second compound 1 µM, first compound 0.3 µM): 7.96%
- viability, T/C (second compound 1 µM, first compound 0.949 µM): 8.07%
- viability, T/C (second compound 1 µM, first compound 3 µM): 6.9%
- viability, T/C (second compound 3.16 µM, first compound 0.00949 µM): 75.9%
- viability, T/C (second compound 3.16 µM, first compound 0.03 µM): 59.1%
- viability, T/C (second compound 3.16 µM, first compound 0.0949 µM): 16.4%
- viability, T/C (second compound 3.16 µM, first compound 0.3 µM): 7.92%
- viability, T/C (second compound 3.16 µM, first compound 0.949 µM): 6.29%
- viability, T/C (second compound 3.16 µM, first compound 3 µM): 7.99%
- viability, T/C (second compound 10 µM, first compound 0.00949 µM): 80.6%
- viability, T/C (second compound 10 µM, first compound 0.03 µM): 69.1%
- viability, T/C (second compound 10 µM, first compound 0.0949 µM): 17.2%
- viability, T/C (second compound 10 µM, first compound 0.3 µM): 11.2%
- viability, T/C (second compound 10 µM, first compound 0.949 µM): 10.8%
- viability, T/C (second compound 10 µM, first compound 3 µM): 7.46%

Structure (SMILES): CC1(C)CCC(CN2CCN(c3ccc(C(=O)NS(=O)(=O)c4ccc(NCC5CCOCC5)c([N+](=O)[O-])c4)c(Oc4cnc5[nH]ccc5c4)c3)CC2)=C(c2ccc(Cl)cc2)C1
- viability, T/C (compound 0.0316 µM): 98.2% and 106% and 89%
- viability, T/C (compound 0.1 µM): 110% and 103% and 101%
- viability, T/C (compound 0.316 µM): 109% and 97.2% (2×)
- viability, T/C (compound 1 µM): 109% and 103% and 96.6%
- viability, T/C (compound 3.16 µM): 93.8% and 103% and 99.2%
- viability, T/C (compound 10 µM): 104% and 72.5% and 89.6%
- IC50 (curve of compound): > 10 µM

Structure (SMILES): O=C(C=Cn1cnc(-c2cc(C(F)(F)F)cc(C(F)(F)F)c2)n1)NNc1cnccn1
- viability, T/C (compound 0.00949 µM): 73.6% and 72.9% and 69.5%
- viability, T/C (compound 0.03 µM): 63% and 56.7% and 62.2%
- viability, T/C (compound 0.0949 µM): 29.8% and 8.08% and 13.8%
- viability, T/C (compound 0.3 µM): 8.48% and 5.65% and 9.96%
- viability, T/C (compound 0.949 µM): 8.74% and 6.18% and 8.91%
- viability, T/C (compound 3 µM): 6.48% and 6.56% and 8.45%
- IC50 (curve of compound): 0.0472 µM and 0.0352 µM and 0.0401 µM

Structure (SMILES): Nc1ccccc1NC(=O)c1ccc(CNC(=O)OCc2cccnc2)cc1 + CC(CO)NC(=O)c1cc(-c2ccc(Cl)cc2)nn(-c2cnn(C)c2)c1=O
- IC50 [1]: 0.509 µM
- IC50 [2]: 0.519 µM
- IC50 [3]: 0.523 µM
- IC50 [4]: 0.596 µM
- IC50 [5]: 0.593 µM
- viability, T/C (second compound 0.1 µM, first compound 0.0316 µM): 80.5%
- viability, T/C (second compound 0.1 µM, first compound 0.1 µM): 81.1%
- viability, T/C (second compound 0.1 µM, first compound 0.316 µM): 62.6%
- viability, T/C (second compound 0.1 µM, first compound 1 µM): 29.9%
- viability, T/C (second compound 0.1 µM, first compound 3.16 µM): 15.4%
- viability, T/C (second compound 0.1 µM, first compound 10 µM): 0.46%
- viability, T/C (second compound 0.316 µM, first compound 0.0316 µM): 87.5%
- viability, T/C (second compound 0.316 µM, first compound 0.1 µM): 81.5%
- viability, T/C (second compound 0.316 µM, first compound 0.316 µM): 61.6%
- viability, T/C (second compound 0.316 µM, first compound 1 µM): 33.7%
- viability, T/C (second compound 0.316 µM, first compound 3.16 µM): 12.8%
- viability, T/C (second compound 0.316 µM, first compound 10 µM): 0.5%
- viability, T/C (second compound 1 µM, first compound 0.0316 µM): 87.9%
- viability, T/C (second compound 1 µM, first compound 0.1 µM): 79.3%
- viability, T/C (second compound 1 µM, first compound 0.316 µM): 63.2%
- viability, T/C (second compound 1 µM, first compound 1 µM): 32.9%
- viability, T/C (second compound 1 µM, first compound 3.16 µM): 14.5%
- viability, T/C (second compound 1 µM, first compound 10 µM): 0.63%
- viability, T/C (second compound 3.16 µM, first compound 0.0316 µM): 85.6%
- viability, T/C (second compound 3.16 µM, first compound 0.1 µM): 89.4%
- viability, T/C (second compound 3.16 µM, first compound 0.316 µM): 65.3%
- viability, T/C (second compound 3.16 µM, first compound 1 µM): 34.7%
- viability, T/C (second compound 3.16 µM, first compound 3.16 µM): 15.3%
- viability, T/C (second compound 3.16 µM, first compound 10 µM): 0.42%
- viability, T/C (second compound 10 µM, first compound 0.0316 µM): 91.7%
- viability, T/C (second compound 10 µM, first compound 0.1 µM): 87.5%
- viability, T/C (second compound 10 µM, first compound 0.316 µM): 74.1%
- viability, T/C (second compound 10 µM, first compound 1 µM): 29.2%
- viability, T/C (second compound 10 µM, first compound 3.16 µM): 12.9%
- viability, T/C (second compound 10 µM, first compound 10 µM): 0.86%
